According to US20160102099A1, “ANTI-VIRAL COMPOUNDS” (Kineta, Inc., priority 2011, published 2016):
Entries after “also recorded” stand apart in the source; their conditions may differ.

How the values were obtained:
IRF-3 = assay: Immunofluorescent cytochemistry assay, IRF-3 activation and translocation to the nucleus; type: cell-based, human; conditions: U2OS cells (method) / HeLa cells (figure legend), 20 hours, increasing amounts, FIG. 2A
Description: Immunofluorescent Cytochemistry Assay to Determine IRF-3 Activation and Translocation to the Nucleus.
The induction of ISG expression mediated by RIG-I is conferred by phosphorylation, dimerization, and nuclear translocation of the IRF-3 transcription factor. Cultured human U2OS cells were treated with increasing amounts of compound or equivalent amounts of DMSO diluted in media for 20 hours. Positive control wells were infected with 100 HA/mL Sendai virus for an equivalent time period. IRF-3 was detected using polyclonal rabbit serum specific to IRF-3 and a secondary antibody conjugated to DYLIGHT™ 488.
(§1) Quantification of Immunofluorescent Assays.
(§2) 96-well plates containing cultured human cells treated with compound and stained for either IRF-3 or NFκB were scanned and quantified using the ARRAYSCAN® instrument and software (Cellomics). Activation of transcription factor is evidenced by increased nuclear intensity normalized for cytoplasmic intensity, or nuclear-cytoplasmic difference.

ISG56 promoter = assay: Luciferase reporter assay, ISG56 promoter; type: cell-based; conditions: stably transfected human cells, 18-20 hours with compound, FIG. 1A
Description: (§3) Luciferase Assay to Identify Active Compounds. Cultured human cells that were stably transfected with luciferase reporter gene driven by RIG-I responsive promoter (IFNβ, ISG56, or ISG54 promoter) were seeded and allowed to grow overnight. The compound “KIN2000” was then added and cells were grown in the presence of KIN2000 for 18-20 hours. Steady-Glo luciferase substrate (Promega) was added and luminescence was read on a luminometer (Berthold).

β-actin promoter = assay: Actin counterscreen (β-actin-luciferase reporter); type: cell-based, human; conditions: specificity counterscreen, FIG. 1B
IFNβ promoter = assay: Luciferase reporter assay, IFNβ promoter; type: cell-based; conditions: stably transfected human cells, 18-20 hours with compound, FIG. 1A
Description: as §3

HeLa cells = assay: MTS assay to determine cytotoxicity; type: cell-based, human; conditions: 48 hours, 0, 1, 5, 10 and 20 μM, FIG. 1C
Description: MTS Assay to Determine Cytotoxicity. Cultured human HeLa cells were treated with increasing amounts of compound or equivalent amounts of DMSO diluted in media for 48 hours to see their effect on cell viability. The proportion of viable cells was calculated using a cell viability assay that measures conversion of a tetrazolium compound (3-(4,5-dimethyl-2-yl)-5-(3-carboxymethoxyphenyl)-2-(4-sulfophenyl)-2H-tetrazolium, inner salt; the MTS assay) to a colored formazan compound in live cells. The conversion of MTS to formazan was detected in a 96-well microtiter plate reader, and the resulting optical densities could then be plotted directly to estimate cell viability. CELLTITER 96® AQueous One Solution Cell (Promega) was the one-step assay used, according to the manufacturer's protocol, and cells were incubated for three hours in the presence of reagent before O.D. reading was done. KIN2000 was diluted to final concentrations of 0, 1, 5, 10, and 20 μM in media containing 0.5% DMSO. Negative control wells contained no compound, and positive control for cytotoxicity was examined using an EMCV infection which causes 100% cytopathic effect. Each compound concentration and control was done in triplicate wells.

ISG54 promoter = assay: Luciferase reporter assay, ISG54 promoter; type: cell-based; conditions: stably transfected human cells, 18-20 hours with compound, FIG. 1A
Description: as §3

NFκB = assay: Immunofluorescent cytochemistry assay, NFκB activation; type: cell-based, human; conditions: HeLa cells, 20 hours, increasing amounts, FIG. 2B
Description: Immunofluorescent Cytochemistry Assay to Determine NFκB Activation.
The innate immune response dependent on RIG-I also activates the NFκB transcription factor and thus increases nuclear levels. Cultured human HeLa cells were treated with increasing amounts of compound or equivalent amounts of DMSO diluted in media for 20 hours. Positive control wells were infected with 100 HA/mL Sendai virus for an equivalent time period. NFκB was detected using, in this example, monoclonal mouse antibody specific to the p65 subunit of NFκB and a secondary antibody conjugated to DyLight 488.
as §1, §2

[1] = test system: human primary dendritic cells; assay: Ex vivo cytokine expression in primary dendritic cells (Luminex/MAGPIX); type: cell-based; conditions: dendritic cells, 0, 1 or 10 μM, 24 hours, supernatant, FIG. 3
Description: The activity of KIN2000 in primary immune cells was assayed to determine whether KIN2000 stimulates immune responses. In this example, cultured human primary dendritic cells were treated with 0, 1, or 10 μM of KIN2000 for 24 hours. Supernatant from treated wells was isolated and tested for levels of cytokine protein. Cytokines were detected using specific antibodies conjugated to magnetic beads and a secondary antibody that reacts with Streptavidin/Phycoerythrin to produce a fluorescent signal. The bound beads were detected and quantified using the MAGPIX® instrument (LUMINEX®) in this Example, but a similar technique can also be used to measure fluorescent protein production, such as an ELISA.

Cn1c(=O)c2c(SCc3cccc(C(F)(F)F)c3)nc(-c3ccco3)nc2n(C)c1=O [KIN2000]
IRF-3 translocation to the nucleus (nuclear-cytoplasmic difference) (IRF-3): dose dependent increase; also recorded: dose-dependent increase | induction of ISG56-luciferase reporter gene (ISG56 promoter): dose-dependent induction | induction of non-specific β-actin promoter (luciferase reporter) (β-actin promoter): did not induce; also recorded: does not induce | induction of IFNβ-luciferase reporter gene (IFNβ promoter): dose-dependent induction | cytotoxicity (MTS cell viability) (HeLa cells): no evident cytotoxicity; also recorded: did not show evident cytotoxicity | induction of ISG54-luciferase reporter gene (ISG54 promoter): dose-dependent induction | NFκB translocation (nuclear-cytoplasmic difference) (NFκB): dose dependent increase; also recorded: dose-dependent increase | IL-8 expression [1]: induce expression; also recorded: dose-dependent expression | MCP-1 (CCL2) expression [1]: induce expression; also recorded: dose-dependent expression | MIP-1α (CCL3) expression [1]: induce expression; also recorded: dose-dependent expression | MIP-1β (CCL4) expression [1]: induce expression; also recorded: dose-dependent expression
